The subject of one data set is Akt. Put plainly: Akt enzyme assay (Phospho-Ser473 ELISA) in A549 cells. Type of data set: cell-based, human. Particulars: read-out: Enzymatic Inhibition, IC50, (nM) Akt.
The subject of the next data set is ERK. Nature of the data set: ERK enzyme assay (ELISA) in A549 cells. Type of data set: cell-based, human. Conditions: read-out: Enzymatic Inhibition, IC50, (nM) ERK.
The next data set has as its target T1, EGFR phosphorylation (Homo sapiens, UniProt P00533).
T1 construct: A549 (harbor EGFR^WT); endogenous in cells; host or cells: A549
Put plainly: Western blot of EGFR phosphorylation expression in A549 cells. Type of data set: cell-based. How it is done: In addition, the obtained data were attuned to β-actin expression to exclude the deviations further.
The western blot experiment was performed according to the same procedure described earlier.

Data set [1] concerns A549 cells. Nature of the data set: Cell cycle analysis by flow cytometry in A549 cells. Conditions: 5a at its IC50 value. It counts as cell-based, human. How it is done:
(§1) The active hydantoin derivative 5a was further investigated for its effect on cell cycle progression and the induction of apoptosis in A549 cells. Exposure of A549 cells to 5a at its IC50 value led to an interference with the normal cell cycle distribution of the cell (Figure 5). […] Meanwhile, 5a was evaluated for its ability to induce apoptosis in A549 cells by staining with propidium iodide and Annexin V-FITC.
(§2) Cell cycle analysis and Annexin V-FITC apoptosis assay were performed as described earlier.
Figure 5 Compound 5a arrested the cell cycle at the sub G1 and S phases in A549 cells. Representative cell cycle distribution data are shown by flow cytometric analysis upon incubation with 5a or DMSO as a negative control for 24 h.

Data set [2] relates to A549 cells. Put plainly: Annexin V-FITC/propidium iodide apoptosis assay in A549 cells. Type of data set: cell-based, human. Particulars: IC50 concentration. On the procedure:
as §1, §2
Figure 6 Apoptotic effect of compound 5a on A549 cells. Representative cytograms of apoptotic A549 cells stimulated with 5a or DMSO as a negative control for 24 h. TEXT PRINTED IN THE PICTURE: Control: Necrosis 0.94%; Late apoptosis 0.26%; Early apoptosis 0.41% | 5a: Necrosis 11.59%; Late apoptosis 19.89%; Early apoptosis 3.77%

For data set [3], the system named is A549 cells. Nature of the data set: Wound healing assay in A549 cells. Conditions: 0.5, 1 or 2 µM, 72 h. It counts as cell-based, human. How it is done: Various articles have highlighted the role of EGFR in the migration of tumor cells. Accordingly, the migratory effects of 5a in A549 cells were assessed using a wound healing assay.
Wound healing assay of 5a was performed using CytoSelect™ 24-well Wound Healing Assay kit (Cat. # CBA-120, Cell Biolabs Inc., Cambridge, UK) per manufacturer’s instructions. In brief, the 24-well plate wound healing inserts were allowed to warm up at room temperature for 10 min., then to each well, 500 µL of A549 cells suspension ([…]) in media containing 10% fetal bovine serum (FBS) was added. Cells were kept in a cell culture incubator until a monolayer formed. Carefully, the insert was removed from the well. The media were slowly aspirated and discarded from the wells. The wells were washed with media to remove dead cells and debris. Finally, the media were added to wells to keep cells hydrated, then wells were visualized under a light microscope. Media containing the indicated concentrations of compound 5a (0.5, 1, or 2 µM) were then added into the wells for 72 h. the wound closure was monitored with a light microscope. The percent closure of the cells into the wound field was measured.

In the next data set the target is EGFR^L858R (Homo sapiens, UniProt P00533, L858R). Put plainly: EGFR kinase assay (L858R).
The next data set has as its target EGFR^T790M (Homo sapiens, UniProt P00533, T790M). Put plainly: EGFR kinase assay (T790M).
The target in a further data set is EGFR^WT (Homo sapiens, UniProt P00533). Put plainly: EGFR kinase assay (wild type).
Another data set relates to PC9 cells. Put plainly: MTT antiproliferative assay, PC9. Conditions: Homo sapiens, PC-9, read-out: IC50 (µM) PC9.
For data set [4], the system named is A549 cells. Nature of the data set: MTT antiproliferative assay, A549. Conditions: Homo sapiens, A549, read-out: IC50 (µM) A549.
For a further data set, the system named is H1975 cells. Nature of the data set: MTT antiproliferative assay, H1975. Particulars: Homo sapiens, NCI-H1975, read-out: IC50 (µM) H1975.
A further data set concerns WI-38 normal cells. Put plainly: MTT cytotoxicity on normal fibroblast WI-38 cells.
The test system of data set [5] is A549, H1975, and PC9 cell lines. Put plainly: MTT antiproliferative assay, average of the three NSCLC cell lines. Particulars: Homo sapiens, read-out: IC50 (µM) Average.
[6] abbreviates: A549 cells treated by 5a, Western blot.

This is an account of results in PMC9317481, “Design and Synthesis of New Hydantoin Acetanilide Derivatives as Anti-NSCLC Targeting EGFR^L858R/T790M Mutations” (Pharmaceuticals, 2022).

Procedure for Akt: Akt expression level was assayed using the Phospho Sandwich Akt (Phospho-Ser473) ELISA Kit (Cat. # MBS9511022, MyBioSource, San Diego, CA, USA) containing the components necessary for the semi-quantitative determination of Akt concentrations within experimental cell lysate samples. The assay was performed according to company protocols: the lysates were diluted with assay diluent and 100 μL/well was dispensed, wrapped with parafilm, and incubated for 2 h. They were shaken with RT or overnight at 4 °C. The plate was washed 3 times with 1× Wash Buffer 300 μL/well with a vacuum-based plate washer. Then, the plate was stricken on absorbent paper to remove as much residual liquid as possible. The Detection Antibody was diluted to 1× and 100 μL/well was dispensed, wrapped with parafilm, and incubated on a shaker for 2 hrs at RT, and the washing step was repeated. Streptavidin-HRP was diluted to 1× and 100 μL/well was dispensed, wrapped with parafilm, and incubated on a shaker for 30 min at RT. Ready-to-use substrate was brought to RT and 100 μL/well was dispensed and the reaction was allowed to incubate on an orbital shaker for 20–30 min. The reaction was stopped with stop solution 100 μL/well. The wells turned from blue to yellow and were read at 450 nm.
Procedure for ERK: ERK ELISA Kit (Cat. # E4317-100, BioVision, Inc., Waltham, MA, USA) was used for the in vitro quantitative determination of Human ERK. Firstly, the plate was washed 2 times with Wash Solution before the standard, sample, and control wells were added. A total of 100 μL of each standard or sample was added into appropriate wells. […] The cover was removed and the plate content was discarded without washing or letting the wells completely dry. A total of 0.1 mL of Biotin-detection antibody work solution was added into the above wells. […] The solution was discarded and washed 3 times with Wash Solution. It was washed by filling each well with Wash Buffer (350 μL) using a multi-channel pipette or auto-washer. It was soaked for 1–2 min, and then all residual wash-liquid was removed from the wells by aspiration. After the last wash, any remaining wash buffer was removed by aspirating or decanting. The plate was clapped on absorbent filter papers or other absorbent materials. […] The solution was discarded and washed 5 times with wash solution as mentioned before. […] A total of 50 μL of Stop Solution was added to each well. The result was read at 450 nm within 20 min.
Procedure for WI-38 normal cells: The new prepared candidates 5a–5n were evaluated for their antitumor activities against four selected cell lines, the adenocarcinomic human alveolar basal epithelial cells NCI-A549, NCI-H1975, human pulmonary adenocarcinoma PC9, and the fibroblast-like fetal lung cells WI-38 (purchased from American Type Culture Collection (ATCC), United States of America), using an MTT assay [26], as described earlier [27].

For `COc1ccc(NC(=O)CN2C(=O)NC(C)(c3ccccc3)C2=O)cc1OC` (centres unmarked) [5a, N -(3,4-dimethoxyphenyl)-2-(4-methyl-2,5-dioxo-4-phenylimidazolidin-1-yl)acetamide], the IC50 in the data set with Akt came to 33.8 ± 0.55 nM; in the data set with ERK, 25.8 ± 41 nM; against EGFR^L858R, 50 ± 1 nM; against EGFR^T790M, 90 ± 2 nM; at EGFR^WT, 30 ± 5 nM; in the data set on PC9 cells it was 10.2 ± 0.53 µM. Besides, the IC50 worked out at 2.26 ± 0.12 µM in the data set on A549 cells [4]; 1.94 ± 0.25 µM in the data set on H1975 cells; 49.3 ± 2.75 µM with WI-38 normal cells (Homo sapiens, WI-38, read-out: WI-38, IC50 (µM)); 4.79 µM in [5]. For the same compound, on EGFR phosphorylation (setting [6]), the “OD (EGFR)” value worked out at 0.79. Besides, on EGFR phosphorylation (setting [6]), the “OD (pEGFR)” value is given as 0.33. Besides, the “fold decrease in expression level of EGFR phosphorylation compared to control” value on EGFR phosphorylation (A549 cells, 0.03 µM of 5a, normalised to β-actin) worked out at 2.5 fold. Also, in the data set on A549 cells [1], the “boost of cells at pre-G1 compared to the control” value is given as 22 folds. Besides, the “cells at S phase” value in the data set on A549 cells [1] (24 h) is 40.40%. In the data set on A549 cells [1] (24 h), the “cells at sub G1 phase” value worked out at 35.25%. Also, the “elevation of early apoptotic cells compared to the negative control” value in the data set on A549 cells [2] came to 77 folds. The “elevation of late apoptotic cells compared to the negative control” value with A549 cells [2] amounted to 9 folds. Moreover, the Early apoptosis in the data set on A549 cells [2] (24 h) stood at 3.77%. The compound further showed a Late apoptosis in the data set on A549 cells [2] (24 h) of 19.89%. Further, the Necrosis with A549 cells [2] (24 h) is listed as 11.59%. Besides, the “wound closure and migration of A549 cells” value with A549 cells [3] was “reduced the wound closure and the migration of A549 cells substantially in a dose-dependent manner”. Besides, the “fold superior to the reference erlotinib on WI-38” value with WI-38 normal cells (ratio of WI-38 IC50 versus erlotinib) is listed as 2.6 fold.
